Source: PubChem BioAssay (NCI)
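1) Cells in 96-well plates. 2) Compound, 48 h, 5 concentrations. 3) Linear interpolation between surrounding doses. 4) Unreached endpoint = highest concentration. Here, GI50 denotes the concentration required for 50% inhibition of growth. Definition used: TGI = concentration required for complete inhibition of growth.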

Legend:
Experiment in all cases: NCI-60 cell line screen, 48 h
[1] = system: 786-0 renal
[2] = system: A549 NSCLC
[3] = system: ACHN renal
[4] = system: CAKI-1 renal
[5] = system: CCRF-CEM leukemia
[6] = system: COLO 205 colon
[7] = system: DU-145 prostate
[8] = system: EKVX NSCLC
[9] = system: HCT-116 colon
[10] = system: HCT-15 colon
[11] = system: HL-60(TB) leukemia
[12] = system: HOP-62 NSCLC
[13] = system: HOP-92 NSCLC
[14] = system: HS 578T breast
[15] = system: HT29 colon
[16] = system: IGROV1 ovarian
[17] = system: K-562 leukemia
[18] = system: KM12 colon
[19] = system: LOX IMVI melanoma
[20] = system: M14 melanoma
[21] = system: MALME-3M melanoma
[22] = system: MCF7 breast
[23] = system: MDA-MB-231 breast
[24] = system: MDA-MB-435
[25] = system: MDA-N
[26] = system: MOLT-4 leukemia
[27] = system: NCI-H226 lung
[28] = system: NCI-H23 lung
[29] = system: NCI-H460 lung
[30] = system: NCI-H522 lung
[31] = system: NCI/ADR-RES ovarian
[32] = system: OVCAR-3 ovarian
[33] = system: OVCAR-4 ovarian
[34] = system: OVCAR-5 ovarian
[35] = system: OVCAR-8 ovarian
[36] = system: PC-3 prostate
[37] = system: RPMI-8226 leukemia
[38] = system: RXF 393 renal
[39] = system: SF-268 CNS
[40] = system: SF-295 CNS
[41] = system: SF-539 CNS
[42] = system: SK-MEL-2 melanoma
[43] = system: SK-MEL-28 melanoma
[44] = system: SK-MEL-5 melanoma
[45] = system: SK-OV-3 ovarian
[46] = system: SN12C renal
[47] = system: SNB-19 CNS
[48] = system: SNB-75 CNS
[49] = system: SR leukemia
[50] = system: SW-620 colon
[51] = system: TK-10 renal
[52] = system: U251 CNS
[53] = system: UACC-257 melanoma
[54] = system: UACC-62 melanoma
[55] = system: UO-31 renal
[56] = system: A498 renal
[57] = system: BT-549 breast
[58] = system: HCC-2998 colon
[59] = system: T-47D breast

SMILES: CN(NC(=O)/C(=C/c1ccc(Cl)cc1)NC(=O)c1ccccc1)c1cn[nH]c(=O)c1Cl
- TGI [1]: > 100000 nM
- TGI [2]: > 100000 nM
- TGI [3]: > 100000 nM
- TGI [4]: > 100000 nM
- TGI [5]: > 100000 nM
- TGI [6]: > 100000 nM
- TGI [7]: > 100000 nM
- TGI [8]: > 100000 nM
- TGI [9]: > 100000 nM
- TGI [10]: > 100000 nM
- TGI [11]: 41600 nM
- TGI [12]: > 100000 nM
- TGI [13]: > 100000 nM
- TGI [14]: > 100000 nM
- TGI [15]: > 100000 nM
- TGI [16]: > 100000 nM
- TGI [17]: > 100000 nM
- TGI [18]: > 100000 nM
- TGI [19]: > 100000 nM
- TGI [20]: > 100000 nM
- TGI [21]: > 100000 nM
- TGI [22]: > 100000 nM
- TGI [23]: > 100000 nM
- TGI [24]: > 100000 nM
- TGI [25]: > 100000 nM
- TGI [26]: 84200 nM
- TGI [27]: > 100000 nM
- TGI [28]: > 100000 nM
- TGI [29]: > 100000 nM
- TGI [30]: 56600 nM
- TGI [31]: > 100000 nM
- TGI [32]: > 100000 nM
- TGI [33]: > 100000 nM
- TGI [34]: > 100000 nM
- TGI [35]: > 100000 nM
- TGI [36]: > 100000 nM
- TGI [37]: 53500 nM
- TGI [38]: > 100000 nM
- TGI [39]: > 100000 nM
- TGI [40]: > 100000 nM
- TGI [41]: > 100000 nM
- TGI [42]: > 100000 nM
- TGI [43]: > 100000 nM
- TGI [44]: > 100000 nM
- TGI [45]: > 100000 nM
- TGI [46]: > 100000 nM
- TGI [47]: > 100000 nM
- TGI [48]: > 100000 nM
- TGI [49]: > 100000 nM
- TGI [50]: > 100000 nM
- TGI [51]: > 100000 nM
- TGI [52]: > 100000 nM
- TGI [53]: > 100000 nM
- TGI [54]: > 100000 nM
- TGI [55]: > 100000 nM

SMILES: CCOC(=O)c1ccc2c(c1)[n+](=O)c(C(=O)C1CCCS1)c(C(F)(F)F)n2[O-] (stereo unspecified)
- GI50 [1]: 406 nM
- TGI [1]: 1460 nM
- GI50 [56]: 1550 nM
- TGI [56]: 3070 nM
- GI50 [2]: 274 nM
- TGI [2]: 764 nM
- GI50 [3]: 172 nM
- TGI [3]: 315 nM
- GI50 [57]: 327 nM
- TGI [57]: 1080 nM
- GI50 [4]: 189 nM
- TGI [4]: 429 nM
- GI50 [5]: 233 nM
- TGI [5]: 550 nM
- GI50 [6]: 217 nM
- TGI [6]: 459 nM
- GI50 [7]: 428 nM
- TGI [7]: 1050 nM
- GI50 [8]: 1190 nM
- TGI [8]: 2610 nM
- GI50 [58]: 675 nM
- TGI [58]: 2000 nM
- GI50 [9]: 173 nM
- TGI [9]: 340 nM
- GI50 [10]: 264 nM
- TGI [10]: 824 nM
- GI50 [11]: 258 nM
- TGI [11]: 643 nM
- GI50 [12]: 350 nM
- TGI [12]: 820 nM
- GI50 [13]: 208 nM
- TGI [13]: 1170 nM
- GI50 [14]: 2120 nM
- TGI [14]: 6350 nM
- GI50 [15]: 172 nM
- TGI [15]: 320 nM
- GI50 [16]: 198 nM
- TGI [16]: 417 nM
- GI50 [17]: 197 nM
- TGI [17]: 437 nM
- GI50 [18]: 389 nM
- TGI [18]: 975 nM
- GI50 [19]: 161 nM
- TGI [19]: 308 nM
- GI50 [20]: 388 nM
- TGI [20]: 1120 nM
- GI50 [21]: 581 nM
- TGI [21]: 1980 nM
- GI50 [22]: 261 nM
- TGI [22]: 738 nM
- GI50 [23]: 490 nM
- TGI [23]: 1780 nM
- GI50 [24]: 330 nM
- TGI [24]: 987 nM
- GI50 [26]: 237 nM
- TGI [26]: 519 nM
- GI50 [27]: 835 nM
- TGI [27]: 2650 nM
- GI50 [28]: 830 nM
- TGI [28]: 2200 nM
- GI50 [29]: 236 nM
- TGI [29]: 588 nM
- GI50 [30]: 187 nM
- TGI [30]: 443 nM
- GI50 [31]: 271 nM
- TGI [31]: 797 nM
- GI50 [32]: 275 nM
- TGI [32]: 713 nM
- GI50 [33]: 220 nM
- TGI [33]: 534 nM
- GI50 [34]: 1420 nM
- TGI [34]: 2760 nM
- GI50 [35]: 239 nM
- TGI [35]: 597 nM
- GI50 [36]: 248 nM
- TGI [36]: 716 nM
- GI50 [37]: 702 nM
- TGI [37]: 2080 nM
- GI50 [38]: 603 nM
- TGI [38]: 1860 nM
- GI50 [39]: 197 nM
- TGI [39]: 458 nM
- GI50 [40]: 749 nM
- TGI [40]: 2070 nM
- GI50 [41]: 722 nM
- TGI [41]: 2040 nM
- GI50 [42]: 1600 nM
- TGI [42]: 3160 nM
- GI50 [43]: 1630 nM
- TGI [43]: 3010 nM
- GI50 [44]: 964 nM
- TGI [44]: 2310 nM
- GI50 [45]: 1370 nM
- TGI [45]: 2670 nM
- GI50 [46]: 448 nM
- TGI [46]: 1810 nM
- GI50 [47]: 1250 nM
- TGI [47]: 2570 nM
- GI50 [48]: 1130 nM
- TGI [48]: 2330 nM
- GI50 [49]: 208 nM
- TGI [49]: 428 nM
- GI50 [50]: 202 nM
- TGI [50]: 490 nM
- GI50 [59]: 493 nM
- TGI [59]: 1920 nM
- GI50 [51]: 288 nM
- TGI [51]: 765 nM
- GI50 [52]: 169 nM
- TGI [52]: 315 nM
- GI50 [53]: 474 nM
- TGI [53]: 1600 nM
- GI50 [54]: 1150 nM
- TGI [54]: 2450 nM
- GI50 [55]: 156 nM
- TGI [55]: 303 nM
